From patent US20110301236A1, “HeLa-C3 Apoptosis Inducer from Garcinia paucinervis” (priority 2010, published 2011) come the findings set out here.

Type in all cases: cell-based
Assay [1] has as its system HeLa-C3 cells. Kind of assay: Apoptosis-inducing effect in HeLa-C3 cells (caspase-3 FRET biosensor, YFP/CFP emission ratio). Particulars: for Apoptotic effect at 10 μM / Apoptotic effect at 25 μM / Apoptotic effect at 50 μM / Apoptotic effect at 100 μM: 72 h, HeLa-C3 cells, YFP/CFP emission ratio. The procedure:
The bioassay method was described in our previous paper with some modifications. All the testing samples were dissolved in DMSO to make stock solutions. The concentration of each stock was at least 1000 times higher than the working concentration. HeLa-C3 cells, which allows detection of apoptotic cell death involving caspase activation, were cultured in minimum essential medium (MEM) containing 10% fetal bovine serum, 100 U/mL penicillin, […] streptomycin, in a 5% CO2 humidity incubator at 37° C. The sample well for apoptotic activity testing was prepared by seeding a well on a 96-well plate with 7500 HeLa-C3 cells suspended in 100 μL culture medium. After 12-16 h incubation, the old medium was removed and 100 μL freshly prepared culture medium containing the testing sample at a certain working concentration was added to both the sample well and the corresponding background well. Culture medium containing 0.1% DMSO was the negative control while 500 nM paclitaxel was the positive control. After that, the plate was read repeatedly by a Perkin-Elmer Victor reader with excitation wavelength at 440±10 nm and emission wavelength at 486±8 nm for CFP (cyan fluorescent protein) and 535±8 nm for YFP (yellow fluorescent protein) at indicated time points. The data acquisition duration was up to 72 h. The YFP/CFP emission ratio was then calculated. The background fluorescence was measured from the wells containing only medium. After subtracting the background fluorescence from the recorded signal, net YFP and CFP readings were obtained. In this paper, Y/C emission ratio is used to represent the effect of FRET, which is equal to the net YFP reading divided by the net CFP reading from the same well. If YFP/CFP emission ratio was reduced below 3, the testing sample was considered as a good apoptotic inducer at that concentration. All samples were tested in triplicate. The whole experiment was repeated for three times.
The biological activity of these new compounds was evaluated for apoptosis inducing effects using genetically engineered HeLa-C3 cells that can produce a fluorescent biosensor capable of detecting caspase-3 activation. These cells emit a green light under normal growth conditions and change to a blue light when caspase-3 is activated during apoptosis to cleave the sensor protein inside the cells. This color change allows one to use a fluorescent plate reader to directly detect the activation level of caspase-3 in HeLa-C3 cells during the course of the compound treatment in a noninvasive way. Based on our previous test results, the emission ratio of YFP (yellow fluorescent protein)/CFP (cyanfluorescent proteins) is usually between 6 and 8 in normal cells, and this ratio will decrease to a value below 3 if a compound can activate caspase-3 and kill cancer cells. Therefore, any compound that can reduce the YFP/CFP emission ratio to a value below 3 is considered positive in activating apoptosis.

Assay [2] concerns HeLa cells. Kind of assay: MTT assay, cell growth inhibition on HeLa cells. Particulars: 72 h. The procedure:
The measurement of the IC50 was conducted on the isolated compounds using MTT assay. MIT powder was dissolved in PBS at a concentration of 5 mg/mL. For MTT assay, 10 μL of MTT solution was added into each well of a 96-well plate. After 2 h incubation at 37° C., 100 μL 10% SDS solution with 0.01 M HCl was added to dissolve the purple crystals. After 24 h incubation, the optical density (OD) readings at 595 nm were measured using a plate reader. Firstly, 2,500 HeLa cells suspended in 100 μL MEM medium were seeded respectively in a 96-well plate. After 24 h incubation, fresh medium contains various concentrations of each compound were added into the 96-well plate and changed the old medium. The concentrations applied except compound 1 which was from 200 μM to 3.125 μM were ranged from 100 μM to 1.5625 μM, which was achieved by doing two-fold dilutions for 6 times. The OD values of the control group at 0 h and 72 h together with the compound treated groups at 72 h from the MTT assay were measured using a plate reader. IC50 is the concentration of a compound inhibiting 50% of the cell growth.
(Formazan colour is commonly taken as a measure of viable cells.)

The test system of assay [3] is HeLa-C3 cells. Kind of assay: Cell morphology changes of HeLa-C3 cells during compound treatment (FIG. 2). The procedure: Refereeing to FIG. 2, Cell morphology changes during the course of compound treatment. HeLa-C3 cells were treated with compounds of 2 at 25 μM, an anticancer drug, pacilitaxel at 500 nM (serving as a positive control), and a control without any drug for 24, 48, and 72 h. Various cell morphologies were recorded at the indicated time points.

As to `COC(=O)c1c(O)cc(O)cc1Oc1c(O)c(OC)cc(CC=C(C)C)c1OC` [Compound 2, Paucinervin B], in assay [1], the “Apoptotic effect at 10 μM” value is given as “− (“−” means the YFP/CFP emission ratio of compound treated HeLa-C3 cells was above 3 at 72 h)”, the “Apoptotic effect at 25 μM” value is given as “+ (“+” means the YFP/CFP emission ratio of compound treated HeLa-C3 cells was below 3 at 72 h)”, the “Apoptotic effect at 50 μM” value is on record as “+ (“+” means the YFP/CFP emission ratio of compound treated HeLa-C3 cells was below 3 at 72 h)” and the “Apoptotic effect at 100 μM” value is reported as “+ (“+” means the YFP/CFP emission ratio of compound treated HeLa-C3 cells was below 3 at 72 h)”. In addition, the “caspase-3 activation in HeLa-C3 cells” value in assay [1] (within 72 h at 25 μM) is listed as “could activate caspase-3”. Besides, it took 9.5 ± 0.2 µM to reach half-maximal inhibition in assay [2] (IC50). In addition, the IC50 (usually the concentration at which inhibition is half-maximal) in assay [2] (Homo sapiens, HeLa) is < 10 µM. Moreover, in assay [3] (25 μM, 24, 48 and 72 h), the Cell morphology result was “shrinkage and detached morphology”.

Take `COc1c(O)c(CC=C(C)C)cc2c1Oc1cc(O)c(CC=C(C)C)c(O)c1C(=O)O2` [Compound 1, Paucinervin A]: in assay [1], the “Apoptotic effect at 10 μM” value was “− (“−” means the YFP/CFP emission ratio of compound treated HeLa-C3 cells was above 3 at 72 h)”, the “Apoptotic effect at 25 μM” value is given as “− (“−” means the YFP/CFP emission ratio of compound treated HeLa-C3 cells was above 3 at 72 h)”, the “Apoptotic effect at 50 μM” value was “− (“−” means the YFP/CFP emission ratio of compound treated HeLa-C3 cells was above 3 at 72 h)” and the “Apoptotic effect at 100 μM” value is “+ (“+” means the YFP/CFP emission ratio of compound treated HeLa-C3 cells was below 3 at 72 h)”. For the same compound, in assay [2], the IC50 was 95.6 ± 5.5 µM.

Take `CC(=O)O[C@H]1C(=O)[C@@]2(C)[C@H]([C@H](OC(=O)c3ccccc3)[C@]3(O)C[C@H](OC(=O)[C@H](O)[C@@H](NC(=O)c4ccccc4)c4ccccc4)C(C)=C1C3(C)C)[C@]1(OC(C)=O)CO[C@@H]1C[C@@H]2O` [paclitaxel, reference compound]: the Cell morphology entry in assay [3] (500 nM (positive control), 24, 48 and 72 h) is “shrinkage and detached morphology”.
